This is an account of results in patent US4675319A, “Antianaphylactic and antibronchospastic piperazinyl-(N-substituted phenyl)carboxamides, compositions and use” (Recordati S. A. Chemical and Pharmaceutical Company, priority 1985, dated 1987).

Structures can show the parent of a compound that is named as a salt. Where two headings read alike, the source gives them in different places.

The test system of series [1] is bronchospasm induced by histamine. As to the kind of experiment: Inhibition of bronchospasm (BSP) induced by histamine in anaesthetized guinea pig (Konzett and Roessler). Format: in vivo. As to conditions: Cavia porcellus, iv, 1 min, histamine 0.5-25 μg/kg i.v., one minute after injection of drug, read-out: BSP, ED50 H. The method, then:
(§1) The antibronchospastic activity was determined according to the method of Konzett and Roessler, Arch., Exp. Path. Pharmakol., 195, 71 (1940), entailing the inhibition of bronchospasm induced in anaesthesized guinea pig by histamine and acetylcholine. For this purpose, the bronchospasms were induced by administering intravenously to the animals 0.5-25 μg/kg of hystamine or 2.5-10 μg/kg of acetylcholine. Inhibition (ED50) was determined one minute after injection of the drug under test.
(§2) In the Table which follows, the results obtained utilizing the above tests are reported. The LD50 and the DE50 in the PCA test are expressed in […]. The DE50 for the antibronchospastic activity (BSP) is expressed in μm/kg i.v. (bronchospasm induced by histamine (H) and acetylcholine (A)). In the TXA2 test, (C) is the concentration in μg/ml, whereas (I%) denotes the maximal inhibition percentage. In the PLA test, the DE50 is expressed in μM/kg i.v. (evaluated 5 and 10 minutes after administration).

Series [2] is described as follows: Acute toxicity LD50 in the mouse (method of Weil). To be noted: in vivo.
Source text: (§3) The novel compounds of the present invention are characterized by high antianaphylactic and antibronchospastic activity and by a low toxicity. The LD50 of the novel piperazine derivatives has been determined in the mouse, both ip and per os, following the method described by C. S. Weil, Biometrics, 8, 249 (1952). In order to evaluate the antianaphylactic activity of said novel compounds, the method of Goose and Blair was followed, in which passive cutaneous anaphylaxis (PCA) was induced in the rat with homologous antibodies [Immunology, 16, 749, (1969)].
as §2

Series [3] deals with passive lung anaphylaxis (PLA). As to the kind of experiment: Passive lung anaphylaxis (PLA): antigen induced bronchoconstriction in passively sensitized rat (method of Greenberg et al). It counts as in vivo. To be noted: iv, i.v. The method, then: Inhibition of passive lung anaphylaxis (PLA) was studied in a model of antigen induced bronchoconstriction in sensitized rat, according to the method described by Greenberg et al, Can. J. Physiol. Pharmacol., 57, 48 (1979). Female albino rate were passively sensitized by intravenous injection of homologous anti-egg albumin serum. Twenty-four hours later the rats were anaesthetized with pentobarbital (35 mg/kg i.p.) and spontaneous respiration was arrested by administration of tubocurarine (0.75 mg/kg i.v.).
Bronchocostriction was induced by egg albumin intravenously administered and measured by the Konzett and Roessler method Arch. Exp. Path. Pharmakol., 195, 71, (1940). The compounds were injected intravenously one minute before antigen challenge. The inhibitory effect (ED50) was evaluated 5 and 10 minutes after i.v. administration of the drugs under test.
as §2

For series [4], the system named is passive cutaneous anaphylaxis (PCA). As to the kind of experiment: Passive cutaneous anaphylaxis (PCA) in the rat with homologous antibodies (method of Goose and Blair). As to conditions: 0.5 h, inhibition of spots areas, 30 minutes after challenge. It counts as in vivo.
Source text: as §3
Female albino rate were immunized intramuscularly with egg albumin and intraperitoneally with Haemophylus pertussis vaccine. Twelve days after treatment, the animals were bled and sera thus obtained were injected intradermally into another group of rats. Twenty-four hours later, the animals were challenged with an i.v. solution of ovoalbumin and Evans blue dye, and sacrificed after 30 minutes. The test drugs were given by different routes of administration and at different times before the challenge. Inhibition of spots areas (ED50) was determined.
as §2

The test system of series [5] is bronchospasm induced by acetylcholine. As to the kind of experiment: Inhibition of bronchospasm (BSP) induced by acetylcholine in anaesthetized guinea pig (Konzett and Roessler). Format: in vivo. To be noted: Cavia porcellus, iv, 1 min, acetylcholine 2.5-10 μg/kg i.v., one minute after injection of drug. The method, then: as §1, §2
The next series has as its system TXA2. As to the kind of experiment: TXA2 inhibition in perfused guinea-pig lungs challenged with bradykinin (method of Berti et al). To be noted: C = 10 μg/ml, bradykinin 0.25-0.5 μg. The method, then:
The TXA2 inhibition was evaluated according to the method of Berti et al Brit. J. Pharmacol., 68, 467 (1980). Lungs from female or male guinea-pigs were perfused through the pulmonary artery with Krebs bicarbonate (5 ml/min, 37° C.). The pulmonary outflow superfused strips of rabbit mesenteric artery and rabbit aorta in cascade, in order to monitor TXA2 activity. These tissues were superfused with a mixture of receptor antagonist and indomethacin to […] their selectivity and sensitivity. Lungs were challenged with a single injection of bradykinin (0.25-0.5 μg) which is known to increase generation of TXA2 from the pulmonary tissue. The novel compounds of the invention were perfused at different concentrations through the lungs 30 and 60 minutes before agonists.
as §2

Setting [6] is: 5 min, evaluated 5 minutes after administration, read-out: PLA, ED50 5'.
The mark [7] stands for this setting: 10 min, evaluated 10 minutes after administration, read-out: PLA, ED50 10'.

`CN(C)c1ccc(NC(=O)CCCN2CCN(C(c3ccccc3)c3ccccc3)CC2)cc1` [Compound 8]: the ED50 in series [1] is 1.1 µmol/kg; in series [3] (setting [6]), 0.84 µmol/kg; in series [3] (setting [7]) it was 0.84 µmol/kg; in series [4], 10 µmol/kg; in series [5] it was above 3 µmol/kg. The LD50 in series [2] (ip, read-out: LD50 ip) was found to be 230 µmol/kg; in series [2] (po, per os, read-out: LD50 os), 430 µmol/kg.

`CN(C(=O)CCN1CCN(C(c2ccccc2)c2ccccc2)CC1)c1cccc(N)c1` [Compound 6, 3-(4-benzhydryl-1-piperazinyl)-N,3-aminophenvl-N-methylpropionamide]: the median effective dose (ED50) in series [1] stood at 0.12 µmol/kg; in series [3] (setting [6]) it was 0.65 µmol/kg; in series [3] (setting [7]), 0.69 µmol/kg; in series [4], 10 µmol/kg; in series [5] it was 0.4 µmol/kg. Moreover, the LD50 in series [2] (ip, read-out: LD50 ip) was above 2330 µmol/kg; in series [2] (po, per os, read-out: LD50 os), above 7000 µmol/kg. The “TXA2 I % (maximal inhibition percentage)” value in the series with TXA2 worked out at 0.8%.

`CN(C)c1ccc(NC(=O)CCN2CCN(C(c3ccccc3)c3ccccc3)CC2)cc1` [Compound 3, 3-(4-benzhydryl-1-piperazinyl)-N,4-dimethylaminophenylpropionamide]: the ED50 in series [1] was found to be 1.1 µmol/kg; in series [3] (setting [6]), 0.02 µmol/kg; in series [3] (setting [7]), 0.02 µmol/kg; in series [4], 25 µmol/kg; in series [5], 0.8 µmol/kg. Moreover, in series [2] (po, per os, read-out: LD50 os), the LD50 was above 7000 µmol/kg.

As for `CNC(=O)Nc1ccc(NC(=O)CCN2CCN(C(c3ccccc3)c3ccccc3)CC2)cc1` [Compound 7, 3-(4-benzhydryl-1-piperazinyl)-N,4-methylureidophenylpropionamide], the LD50 was 1750 µmol/kg in series [2] (ip, read-out: LD50 ip) and above 5900 µmol/kg in series [2] (po, per os, read-out: LD50 os). The compound also returned an ED50 in series [4] of 73 µmol/kg.

`Nc1ccc(NC(=O)CCN2CCN(C(c3ccccc3)c3ccccc3)CC2)cc1` [Compound 5, 3-(4-benzhydryl-1-piperazinyl)-N,4-aminophenylpropionamide]: the results for the ED50 in series [1] and in series [4] were 0.23 µmol/kg and 28 µmol/kg, respectively. Also, the LD50 in series [2] (po, per os, read-out: LD50 os) was found to be 7200 µmol/kg.

Regarding `CN(C)c1cccc(NC(=O)CCN2CCN(C(c3ccccc3)c3ccccc3)CC2)c1` [Compound 2, 3-(4-benzhydryl-1-piperazinyl)-N,3-dimethylaminoophenylpropionamide trihydrochloride hemihydrate], the 50% lethal dose (LD50) stood at 260 µmol/kg in series [2] (ip, read-out: LD50 ip) and 340 µmol/kg in series [2] (po, per os, read-out: LD50 os). For the same compound, in series [4], the 50% effective dose (ED50) is above 69 µmol/kg.

Consider `Nc1cccc(NC(=O)CCN2CCN(C(c3ccccc3)c3ccccc3)CC2)c1` [Compound 4, 3-(4-benzhydryl-1-piperazinyl)-N,3-aminophenylpropionamide], for which the ED50 in series [1] was 0.21 µmol/kg; in series [3] (setting [6]) it was 0.04 µmol/kg; in series [3] (setting [7]) it was 0.08 µmol/kg; in series [4], 8 µmol/kg; in series [5], 0.4 µmol/kg. For the same compound, the LD50 in series [2] (po, per os, read-out: LD50 os) was 5000 µmol/kg. Besides, the “TXA2 I % (maximal inhibition percentage)” value in the series with TXA2 was found to be 47%.

For `CNc1cccc(NC(=O)CCN2CCN(C(c3ccccc3)c3ccccc3)CC2)c1` [Compound 1, 3-(4-benzhydryl-1-piperazinyl)-N,3-methylaminophenylpropionamide], the figures for the ED50 in series [1] and in series [4] were 0.25 µmol/kg and 13 µmol/kg, respectively. Besides, the LD50 in series [2] (ip, read-out: LD50 ip) is 240 µmol/kg; in series [2] (po, per os, read-out: LD50 os), 580 µmol/kg.

Broadly, the ED50 is the dose that gives a 50% effect, or the effect in half of the subjects. One may read the LD50 as the dose at which mortality reaches 50%.
